Measured values taken from patent publication US11001802B2, “Surface of a vessel with polystyrene, nitrogen, oxygen and a static sessile contact angle for attachment and cultivation of cells” (Nunc A/S, priority 2008, dated 2021).

Tests used:
Assay type in all cases: cell-based
[1] = tested on: human ES cell line H1; assay: Attachment, plating efficiency and passage time of H1 human ES cells on surface modified plates (Examples 3, 4)
Method: Human ES cells of the line H1, at passage 49 were maintained in MEF conditioned media on Nunclon Delta™ plates treated with a 1:30 dilution of growth factor reduced Matrigel™, prior to study. Cells were dissociated from the surface for passage by 1 mg/ml collagenase dissociation or by manual scraping.
These cells were then seeded onto two untreated wells of the surface modified plates (6-well format). Additionally, one well of each plate was treated with 0.1% xeno-free human gelatin as a control. Cells were also plated directly onto untreated and gelatin-treated wells of Costar™ (cat. no. 3516; Corning, Corning, N.Y.), Falcon™ (cat. no. 351146; Becton Dickinson, Franklin Lakes, N.J.) and Nunclon Delta™ (cat. no. 140675; Thermo Fisher Scientific, Roskilde, Denmark) 6-well plates for negative controls, and plated onto wells treated with 1:30 dilution of growth factor reduced Matrigel™ to provide as positive controls. In all treatments cells were maintained in MEF conditioned media.
Human ES cells of the line H1, at passage 49 were maintained in MEF conditioned media on Nunclon Delta™ plates treated with a 1:30 dilution of growth factor reduced Matrigel™, prior to study. Cells were dissociated from the surface for passage by 1 mg/ml collagenase dissociation.
These cells were then seeded onto untreated wells of surface modified plates (6-well format). […]

[2] = tested on: H9 human ES cells; assay: H9 human ES cell attachment to surface Nunc4 in defined media mTeSR (Example 14); details: 20 micromolar Y-27632
Method: Passage 49 H9 human ES cells were passaged twice in the define media, mTeSR™, on Matrigel™-treated plasticware. The cells were then LIBERASE treated and plated onto the surface modified plate Nunc4 in mTeSR™ media. Cells were either plated in media with or without 20 micromolar Y-27632. Wells were also treated with various proteins for 30 minutes prior to seeding cells (no treatment, 0.1% gelatin, 2% BSA, 0.34 mg/ml rat Collagen I, 1:1000 Matrigel™, or 1:5000 Matrigel™) to determine if these proteins could promote human ES cell adhesion in defined media with or without Y-27632 (FIG. 28). […] However, when 20 micromolar Y-27632 was added to define mTeSR™ media, human ES cells adhered to surface Nunc4. Furthermore, this adherence was equivalent in untreated wells and wells treated with 0.1% gelatin, 2% BSA, and 0.34 mg/ml rat Collagen I. There was a modest increase in human ES cell attachment in wells with low concentrations of Matrigel™ (1:1000 and 1:5000 dilutions), however these concentrations of Matrigel™ were insufficient to promote adhesion in the absence of Y-27632.

[3] = tested on: H9 human ES cells; assay: Adherence of H9 human ES cells to surface modified plates with increasing Y-27632, crystal violet (Example 12)
Method: Passage 49 H9 human ES cells previously plated to 1:30 Matrigel™ treated plasticware and grown in MEF conditioned media supplemented with 8 ng/ml of bFGF were LIBERASE treated and plated to surface modified plates in MEF conditioned media supplemented with 8 ng/ml of bFGF and not otherwise treated or supplemented with increasing concentrations of Y-27632. 24 and 48 hours after plating H9 human ES cells to surface modified plates small colonies could be observed on Surfaces 2-4 and 13, and CellBIND™, and Primaria™ (cat. no. 353846, Becton Dickinson, Franklin Lakes, N.J.) with crystal violet stain (FIGS. 24-26). Furthermore, the adherence of H9 human ES cell colonies was improved by the addition of Y-27632 and the effect was dose responsive (FIG. 25).

[4] = tested on: human ES cell line H9; assay: Attachment and colony formation of H9 human ES cells on surface modified plates with Rho kinase inhibitors (crystal violet, image analysis)
Method: Human ES cells of the line H9, at passage 40 were maintained in MEF conditioned media on Nunclon Delta™ plates treated with a 1:30 dilution of growth factor reduced Matrigel™, prior to study. Cells were dissociated from the surface for passage by 1 mg/ml collagenase dissociation or by manual scraping.
These cells were then seeded onto surface modified plates 2, 3, 4 and 13 (12-well format) in the presence of increasing amounts one of the following Rho Kinase inhibitors: Y-27632 (from Sigma, St. Louis, Mo. or EMD, San Diego, Calif.), Fasudil (Sigma), or Hydroxyfasudil (Sigma), and maintained for 3 days, each day replacing the media and compound. At the end of day three, media was removed and the plates were stained with Crystal Violet (0.5% in water) to visualize colonies.
It was attempted to determine the optimal dose of Y-27632 to promote cell binding, by treating cells with a range of plating concentrations of Y-27632 for the first day of culture. After the first day in culture cells were treated on subsequent days with a 10 μM concentration of Y-27632. It was observed that the maximal concentration to stimulate attachment and growth of ES cells was 10 μM (FIG. 12) and that this occurred on surface modified plates 2, 3, 4, 13 and CellBIND™ (Corning, Corning, N.Y.).
The effect of treating the cells continuously with a single dose of Y-27632 on attachment and growth was also tested. The cells were dosed with 0, 1, 4, or 10 μM Y-27632 for 4 days. Some binding was observed on surface modified plates without treatment (0 μM), however the optimal concentration to stimulate attachment and growth of ES cells was 10 μM Y-27632 (Table 4) on surface modified plates 2, 3, 4, 13.

C[C@@H](N)[C@H]1CC[C@H](C(=O)Nc2ccncc2)CC1 [Surface Y-27632, Y-27632]
plating efficiency ([1]; H1 (p52) on surface modified plates, 10 μM Y-27632 in MEF conditioned media for 48 hours): significantly increased plating efficiency
readiness for passage 4 days after plating ([1]; H1 on surface modified plates, 10 μM Y-27632 or 0.5 ng/ml C3 exotransferase): could be passaged 4 days after plating
adherence of human ES cells in defined mTeSR media [2]: adhered
human ES cell attachment versus untreated ([3]; 1 to 2 micromolar Y-27632): minimal improvement
adherence of human ES cells to surface modified plates ([3]; 4 to 20 micromolar Y-27632): promoted adherence
attachment of ES cell colonies by day three ([4]; H9 on surface modified plates 2, 3, 4 and 13, crystal violet, Y-27632 at 10 μM): Best results
cell proliferation ([4]; Matrigel treated plates with or without 10 μM Y-27632 (FIG. 14)): grow at a similar density as untreated cells
optimal concentration to stimulate attachment and growth of ES cells ([4]; continuous 0, 1, 4 or 10 μM for 4 days, plates 2, 3, 4, 13): 10 µM
maximal concentration to stimulate attachment and growth of ES cells ([4]; range of plating concentrations first day, then 10 μM, plates 2, 3, 4, 13 and CellBIND): 10 µM
